Experimental data: PMC11084659, “The Development of CDC25A-Derived Phosphoseryl Peptides That Bind 14-3-3ε with High Affinities” (International Journal of Molecular Sciences, 2024)
Where a SMILES comes first, the peptide text is derived from it. [ ]: non-standard residue; d: D form. pS = N[C@@H](COP(=O)(O)O)C(=O)O

T1: 14-3-3ε (Homo sapiens, UniProt P62258)
T1 construct: purchased Novus Biologicals
T1 sequence (P62258 1-255): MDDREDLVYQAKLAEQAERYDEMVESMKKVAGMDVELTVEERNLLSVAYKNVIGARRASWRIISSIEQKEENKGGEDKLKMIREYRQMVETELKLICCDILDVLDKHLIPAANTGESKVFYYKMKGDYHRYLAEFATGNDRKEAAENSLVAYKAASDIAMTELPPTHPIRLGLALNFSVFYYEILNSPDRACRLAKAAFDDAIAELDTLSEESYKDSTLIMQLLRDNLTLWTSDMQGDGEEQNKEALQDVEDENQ

T2: (His)6-14-3-3ε (UniProt P62258 1-255)
T2 construct: 14-3-3 protein epsilon; also called His-tagged protein; source: bought: Novus Biologicals
T2 sequence (looked up): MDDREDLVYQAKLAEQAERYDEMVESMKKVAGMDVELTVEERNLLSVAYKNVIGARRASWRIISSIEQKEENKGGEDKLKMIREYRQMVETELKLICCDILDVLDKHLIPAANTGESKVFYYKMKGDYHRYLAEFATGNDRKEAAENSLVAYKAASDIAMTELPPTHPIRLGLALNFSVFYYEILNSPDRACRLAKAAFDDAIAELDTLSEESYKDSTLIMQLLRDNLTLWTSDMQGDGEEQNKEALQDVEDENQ


Tests used:
14-3-3ε [1] = biological target: T1, 14-3-3ε; test: Differential scanning fluorimetry (DSF), melting temperature shift of 14-3-3ε; assay type: binding; conditions: 30 μM peptide, 2 µM 14-3-3ε, SYPRO-orange, 20 mM TRIS, 150 mM NaCl, 1 mM DTT, pH 7.4, average ± SD of n ≥ 5
Protocol: (§1) The binding of the peptides to 14-3-3ε was further assessed using differential scanning fluorometry (DSF) and surface plasmon resonance (SPR) measurements. DSF was used to determine the effects of the peptides on the melting temperature (Tm) of 14-3-3ε (Table 4, Figure 6 and Figure S4). The pS peptide caused an increase in melting temperature (ΔTm) of 0.35 ± 0.16 °C, while pS(174–182) induced no ΔTm. The Phe and Tyr substitutions in position 176 led to ΔTm of 1.08 ± 0.34 °C and 1.10 ± 0.32 °C, respectively. Lys, Phe, and Tyr substitutions in position 179 led to ΔTm of between 0.00 and 0.23 °C (Table 4). To quantitatively determine the affinity of the peptides for 14-3-3ε protein using SPR, His-tagged protein was immobilized on a nitrilotriacetic acid (Ni-NTA) sensor chip, and then binding of the peptides analogs to the protein was determined.
Thermal unfolding of 14-3-3ε (2 µM) and its complex with peptides (30 μM) was monitored in the presence of a hydrophobic protein-binding dye, SYPRO-orange (Invitrogen, Carlsbad, CA, USA), using the BioRad CFX384 Touchreal-time PCR (Hercules, CA, USA). The assays were performed in 20 mM TRIS, 150 mM NaCl, 1 mM DTT, and pH 7.4 buffer. The first derivative of the melting curves was plotted using GraphPad Prism software, version 10.0.3 to determine Tm of the protein. ΔTm was determined as the difference between Tm of 14-3-3ε in the presence of a peptide and Tm of 14-3-3ε alone.

14-3-3ε [2] = biological target: T1, 14-3-3ε; test: Surface plasmon resonance (SPR), steady-state affinity on immobilized His6-14-3-3ε; assay type: binding
Protocol: as §1
The SPR analyses were carried out using the Biacore 8K surface plasmon resonance instrument (Cytiva, Marlborough, MA, USA). A total of 100 nM His6-14-3-3ε was immobilized on the NiCl2-activated NTA chip (Cytiva, Marlborough, MA, USA) as previously described. Then, different concentrations of peptide in the range of 0−500 μM (depending on the peptide) were injected. The experiments were performed in 20 mM TRIS, 150 mM NaCl, 50 μM EDTA, 0.005% Tween 20, and pH 7.4 buffer. The affinities of the peptides binding to 14-3-3ε were determined by fitting the data to a steady-state binding model using Biacore Insight Evaluation Software (version 5.0.18.22102).

cSCC cells = conditions: read-out: IC50, death of cSCC cells; cited from earlier work
(His)6-14-3-3ε [3] = biological target: T2, (His)6-14-3-3ε; test: differential scanning fluorimetry; 14-3-3ε 2 µM with peptide 30 μM, SYPRO-orange; 20 mM TRIS, 150 mM NaCl, 1 mM DTT, pH 7.4; ΔTm = Tm with peptide minus Tm of 14-3-3ε alone; conditions: both partners purified
(His)6-14-3-3ε [4] = biological target: T2, (His)6-14-3-3ε; test: SPR; Biacore 8K; 100 nM His6-14-3-3ε immobilized on NiCl2-activated NTA chip; peptides injected at 0-500 μM (depending on the peptide); 20 mM TRIS, 150 mM NaCl, 50 μM EDTA, 0.005% Tween 20, pH 7.4; steady-state binding model; conditions: both partners purified
(His)6-14-3-3ε [5] = biological target: T2, (His)6-14-3-3ε; test: as above; conditions: both partners purified; remark: listed apart in the source

ΔTm (melting temperature shift of 14-3-3ε) (14-3-3ε [1])	ΔG ± SD (free energy of binding derived from KD) (14-3-3ε [2])	Kd ((His)6-14-3-3ε [4])	Molecule	also measured
0.23 ± 0.09 °C	-30.12 ± 0.23 kJ/mol		CC(=O)N[C@@H](CCC(N)=O)C(=O)N[C@@H](CCCNC(=N)N)C(=O)N[C@@H](CCC(N)=O)C(=O)N[C@@H](CCCCN)C(=O)N[C@@H](COP(=O)(O)O)C(=O)N[C@@H](C)C(=O)N1CCC[C@H]1C(=O)N[C@@H](C)C(=O)N[C@@H](CCCNC(=N)N)C(N)=O [[Lys^177]pS(174–182)] (Ac-QRQK[pS]APAR-NH2)	
1.08 ± 0.34 °C			CC(=O)N[C@@H](CCC(N)=O)C(=O)N[C@@H](CCCNC(=N)N)C(=O)N[C@@H](Cc1ccccc1)C(=O)N[C@@H](CC(N)=O)C(=O)N[C@@H](COP(=O)(O)O)C(=O)N[C@@H](C)C(=O)N1CCC[C@H]1C(=O)N[C@@H](C)C(=O)N[C@@H](CCCNC(=N)N)C(N)=O [[Phe^176]pS(174–182)] (Ac-QRFN[pS]APAR-NH2)	
0 °C	-24.15 ± 0.2 kJ/mol		CC(=O)N[C@@H](CCC(N)=O)C(=O)N[C@@H](CCCNC(=N)N)C(=O)N[C@@H](CCC(N)=O)C(=O)N[C@@H](CC(N)=O)C(=O)N[C@@H](COP(=O)(O)O)C(=O)N[C@@H](Cc1ccccc1)C(=O)N1CCC[C@H]1C(=O)N[C@@H](C)C(=O)N[C@@H](CCCNC(=N)N)C(N)=O [[Phe^179]pS(174–182)] (Ac-QRQN[pS]FPAR-NH2)	
1.10 ± 0.32 °C	-36.76 ± 0.46 kJ/mol		CC(=O)N[C@@H](CCC(N)=O)C(=O)N[C@@H](CCCNC(=N)N)C(=O)N[C@@H](Cc1ccc(O)cc1)C(=O)N[C@@H](CC(N)=O)C(=O)N[C@@H](COP(=O)(O)O)C(=O)N[C@@H](C)C(=O)N1CCC[C@H]1C(=O)N[C@@H](C)C(=O)N[C@@H](CCCNC(=N)N)C(N)=O [[Tyr^176]pS(174–182)] (Ac-QRYN[pS]APAR-NH2)	
0 °C	-22.47 ± 0.39 kJ/mol		CC(=O)N[C@@H](CCC(N)=O)C(=O)N[C@@H](CCCNC(=N)N)C(=O)N[C@@H](CCC(N)=O)C(=O)N[C@@H](CC(N)=O)C(=O)N[C@@H](COP(=O)(O)O)C(=O)N[C@@H](Cc1ccc(O)cc1)C(=O)N1CCC[C@H]1C(=O)N[C@@H](C)C(=O)N[C@@H](CCCNC(=N)N)C(N)=O [[Tyr^179]pS(174–182)] (Ac-QRQN[pS]YPAR-NH2)	
	-28.76 ± 0.23 kJ/mol		CC(=O)N[C@@H](CCC(N)=O)C(=O)N[C@@H](CCCNC(=N)N)C(=O)N[C@@H](CCC(N)=O)C(=O)N[C@@H](CC(N)=O)C(=O)N[C@@H](COP(=O)(O)O)C(=O)N[C@@H](C)C(=O)N1CCC[C@H]1C(=O)N[C@@H](C)C(=O)N[C@@H](CCCNC(=N)N)C(N)=O [pS(174–182)] (Ac-QRQN[pS]APAR-NH2)	
0.35 ± 0.16 °C	-37.96 ± 0.09 kJ/mol		CSCC[C@H](NC(=O)[C@H](CCCNC(=N)N)NC(=O)[C@H](C)NC(=O)[C@@H]1CCCN1C(=O)[C@H](C)NC(=O)[C@H](COP(=O)(O)O)NC(=O)[C@H](CC(N)=O)NC(=O)[C@H](CCC(N)=O)NC(=O)[C@H](CCCNC(=N)N)NC(=O)[C@H](CCC(N)=O)NC(=O)[C@@H](NC(C)=O)[C@@H](C)O)C(=O)N[C@@H](CC(C)C)C(=O)N[C@@H](CO)C(=O)N[C@@H](CO)C(N)=O [pS] (Ac-TQRQN[pS]APARMLSS-NH2)	IC50 (cSCC cells): 29 µM
		0.22 µM	Ac-TQRQN[pS]APARMLSS-NH2 (SMILES CSCC[C@H](NC(=O)[C@H](CCCNC(=N)N)NC(=O)[C@H](C)NC(=O)[C@@H]1CCCN1C(=O)[C@H](C)NC(=O)[C@H](COP(=O)(O)O)NC(=O)[C@H](CC(N)=O)NC(=O)[C@H](CCC(N)=O)NC(=O)[C@H](CCCNC(=N)N)NC(=O)[C@H](CCC(N)=O)NC(=O)[C@@H](NC(C)=O)[C@@H](C)O)C(=O)N[C@@H](CC(C)C)C(=O)N[C@@H](CO)C(=O)N[C@@H](CO)C(N)=O, CDC25A residues 173-186, with phosphoserine at 178; also called parent pS peptide; source: synthetic peptide (Biosynth International Inc.), >95% purity) [pS peptide, CDC25A residues 173–186]	ΔTm ((His)6-14-3-3ε [3]): 0.35 °C
		9.05 µM	Ac-QRQN[pS]APAR-NH2 (SMILES CC(=O)N[C@@H](CCC(N)=O)C(=O)N[C@@H](CCCNC(=N)N)C(=O)N[C@@H](CCC(N)=O)C(=O)N[C@@H](CC(N)=O)C(=O)N[C@@H](COP(=O)(O)O)C(=O)N[C@@H](C)C(=O)N1CCC[C@H]1C(=O)N[C@@H](C)C(=O)N[C@@H](CCCNC(=N)N)C(N)=O, CDC25A residues 174-182, with phosphoserine at 178; also called Ac-CDC25A(174–182)-NH2; source: synthetic peptide (Biosynth International Inc.), >95% purity) [pS(174–182)]	Kd ((His)6-14-3-3ε [5]): 6.56 ± 2.16 µM
		58.3 µM	Ac-QRQN[pS]FPAR-NH2 (SMILES CC(=O)N[C@@H](CCC(N)=O)C(=O)N[C@@H](CCCNC(=N)N)C(=O)N[C@@H](CCC(N)=O)C(=O)N[C@@H](CC(N)=O)C(=O)N[C@@H](COP(=O)(O)O)C(=O)N[C@@H](Cc1ccccc1)C(=O)N1CCC[C@H]1C(=O)N[C@@H](C)C(=O)N[C@@H](CCCNC(=N)N)C(N)=O, CDC25A residues 174-182, with phosphoserine at 178 and Ala179 replaced by Phe; source: synthetic peptide (Biosynth International Inc.), >95% purity) [[Phe^179]pS(174–182)]	
		0.36 µM	Ac-QRFN[pS]APAR-NH2 (SMILES CC(=O)N[C@@H](CCC(N)=O)C(=O)N[C@@H](CCCNC(=N)N)C(=O)N[C@@H](Cc1ccccc1)C(=O)N[C@@H](CC(N)=O)C(=O)N[C@@H](COP(=O)(O)O)C(=O)N[C@@H](C)C(=O)N1CCC[C@H]1C(=O)N[C@@H](C)C(=O)N[C@@H](CCCNC(=N)N)C(N)=O, CDC25A residues 174-182, with phosphoserine at 178 and Gln176 replaced by Phe; source: synthetic peptide (Biosynth International Inc.), >95% purity) [[Phe^176]pS(174–182)]	ΔTm ((His)6-14-3-3ε [3]): 1.08 °C
		0.41 µM	Ac-QRYN[pS]APAR-NH2 (SMILES CC(=O)N[C@@H](CCC(N)=O)C(=O)N[C@@H](CCCNC(=N)N)C(=O)N[C@@H](Cc1ccc(O)cc1)C(=O)N[C@@H](CC(N)=O)C(=O)N[C@@H](COP(=O)(O)O)C(=O)N[C@@H](C)C(=O)N1CCC[C@H]1C(=O)N[C@@H](C)C(=O)N[C@@H](CCCNC(=N)N)C(N)=O, CDC25A residues 174-182, with phosphoserine at 178 and Gln176 replaced by Tyr; source: synthetic peptide (Biosynth International Inc.), >95% purity) [[Tyr^176]pS(174–182)]	ΔTm ((His)6-14-3-3ε [3]): 1.1 °C
		5.23 µM	Ac-QRQK[pS]APAR-NH2 (SMILES CC(=O)N[C@@H](CCC(N)=O)C(=O)N[C@@H](CCCNC(=N)N)C(=O)N[C@@H](CCC(N)=O)C(=O)N[C@@H](CCCCN)C(=O)N[C@@H](COP(=O)(O)O)C(=O)N[C@@H](C)C(=O)N1CCC[C@H]1C(=O)N[C@@H](C)C(=O)N[C@@H](CCCNC(=N)N)C(N)=O, CDC25A residues 174-182, with phosphoserine at 178 and Asn177 replaced by Lys; source: synthetic peptide (Biosynth International Inc.), >95% purity) [[Lys^177]pS(174–182)]	
		116 µM	Ac-QRQN[pS]YPAR-NH2 (SMILES CC(=O)N[C@@H](CCC(N)=O)C(=O)N[C@@H](CCCNC(=N)N)C(=O)N[C@@H](CCC(N)=O)C(=O)N[C@@H](CC(N)=O)C(=O)N[C@@H](COP(=O)(O)O)C(=O)N[C@@H](Cc1ccc(O)cc1)C(=O)N1CCC[C@H]1C(=O)N[C@@H](C)C(=O)N[C@@H](CCCNC(=N)N)C(N)=O, CDC25A residues 174-182, with phosphoserine at 178 and Ala179 replaced by Tyr; source: synthetic peptide (Biosynth International Inc.), >95% purity) [[Tyr^179]pS(174–182)]	
